Calls of active or inactive are those of the source. No cut-off for these calls is given here.
Assays:
Type in all cases: cell-based
HEK293 = assay: Inhibition of SPP expressed in HEK293 cells at 10 uM in presence of Prl-PP peptide after 30 mins
Gamma-secretase [1] = assay: Displacement of [3H]L685458 from gamma-secretase in human THP1 cells; conditions: thp-1
[2] = Displacement of [3H]L685458 from human SPP expressed in HEK293 cells
Gamma-secretase [3] = assay: Displacement of [3H]IN973 from gamma-secretase in human THP1 cells; conditions: thp-1
[4] = Inhibition of SPP expressed in HEK293 cells in presence of Prl-PP peptide after 30 mins

In the case of C[C@H](NC(=O)Cc1cc(F)cc(F)c1)C(=O)N[C@H](C(=O)OC(C)(C)C)c1ccccc1, the Activity (HEK293) is reported as “inactive”, the IC50 (Gamma-secretase [1]) is reported as greater than 100 µM and the IC50 [2] is reported as 34.2 µM. It also gave an IC50 (Gamma-secretase [3]) of 0.0063 µM.
Compound CSc1ccc(/C=C2/C(C)=C(CC(=O)O)c3cc(F)ccc32)cc1 [SULINDAC SULFIDE] has an IC50 (Gamma-secretase [1]) of 57.1 µM, an IC50 [2] of 45.2 µM and an IC50 (Gamma-secretase [3]) of 332 µM.
With C[C@H](NC(=O)[C@@H](O)c1cc(F)cc(F)c1)C(=O)N[C@@H]1C(=O)N(C)N=Cc2ccccc21 the Activity (HEK293) was “inactive”, the IC50 (Gamma-secretase [1]) was 0.51 µM and the IC50 (Gamma-secretase [3]) was 0.0012 µM.
For C[C@H](c1ccc(F)cc1CCCC(=O)O)N(c1cc(F)ccc1F)S(=O)(=O)c1ccc(Cl)cc1, the Activity (HEK293) was “inactive”, the IC50 (Gamma-secretase [1]) was 25.6 µM and the IC50 [2] was 28.7 µM. The IC50 (Gamma-secretase [3]) was 0.012 µM.
Compound CC(C)C[C@H](NC(=O)[C@H](Cc1ccccc1)C[C@@H](O)[C@H](Cc1ccccc1)NC(=O)OC(C)(C)C)C(=O)N[C@@H](Cc1ccccc1)C(N)=O has an IC50 (Gamma-secretase [1]) of 0.0043 µM, an IC50 [2] of 0.01 µM and an IC50 [4] of 10 µM. It also gave an IC50 (Gamma-secretase [3]) of 0.072 µM.
For CCC[C@H](C(N)=O)[C@@H](CC(C)C)C(=O)N[C@H]1N=C(c2ccccc2)c2ccccc2N(C)C1=O, the Activity (HEK293) was “inactive” and the IC50 [2] was 0.56 µM.
With CC(C)C[C@H](NC(=O)OCc1ccccc1)C(=O)N[C@@H](CC(C)C)C(=O)NCC(=O)CNC(=O)[C@H](CC(C)C)NC(=O)[C@H](CC(C)C)NC(=O)OCc1ccccc1 the IC50 (Gamma-secretase [1]) was 0.0087 µM, the IC50 [2] was 0.0053 µM and the IC50 [4] was 2 µM. For the same compound, the IC50 (Gamma-secretase [3]) was 2.06 µM.

Reference: ChEMBL document CHEMBL1147073, “Signal peptide peptidase and gamma-secretase share equivalent inhibitor binding pharmacology” (J Biol Chem, 2007)
